Experimental data: PubChem BioAssay (NCI)
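Where inhibition never reached the appropriate level, the endpoint shown equals the highest concentration tested. Otherwise, values were interpolated linearly from a five-concentration, 48-hour dose response in 96-well plates. Definition used: TGI = concentration required for complete inhibition of growth.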

How the values were obtained:
Experiment in all cases: DTP human tumour cell line panel, 48 h
PC-3 prostate = system: PC-3 prostate
OVCAR-3 ovarian = system: OVCAR-3 ovarian
SF-295 CNS = system: SF-295 CNS
MALME-3M melanoma = system: MALME-3M melanoma
SK-MEL-5 melanoma = system: SK-MEL-5 melanoma
NCI-H23 lung = system: NCI-H23 lung
SN12C renal = system: SN12C renal
UO-31 renal = system: UO-31 renal
SNB-19 CNS = system: SNB-19 CNS
SW-620 colon = system: SW-620 colon
T-47D breast = system: T-47D breast
NCI-H460 lung = system: NCI-H460 lung
MDA-MB-435 = system: MDA-MB-435
SF-268 CNS = system: SF-268 CNS
OVCAR-4 ovarian = system: OVCAR-4 ovarian
HT29 colon = system: HT29 colon
MDA-N = system: MDA-N
OVCAR-8 ovarian = system: OVCAR-8 ovarian
MOLT-4 leukemia = system: MOLT-4 leukemia

| Structure (SMILES) | TGI (PC-3 prostate) [µM] | TGI (OVCAR-3 ovarian) [µM] | TGI (SF-295 CNS) [µM] | TGI (MALME-3M melanoma) [µM] | TGI (SK-MEL-5 melanoma) [µM] | TGI (NCI-H23 lung) [µM] | TGI (SN12C renal) [µM] | TGI (UO-31 renal) [µM] | TGI (SNB-19 CNS) [µM] | TGI (SW-620 colon) [µM] | TGI (T-47D breast) [µM] | TGI (NCI-H460 lung) [µM] | TGI (MDA-MB-435) [µM] | TGI (SF-268 CNS) [µM] | TGI (OVCAR-4 ovarian) [µM] | TGI (HT29 colon) [µM] | TGI (MDA-N) [µM] | TGI (OVCAR-8 ovarian) [µM] | TGI (MOLT-4 leukemia) [µM] |
| --- | --- | --- | --- | --- | --- | --- | --- | --- | --- | --- | --- | --- | --- | --- | --- | --- | --- | --- | --- |
| COc1cc(/C=N\N(C)C)cc(/C=N/N(C)C)c1O | 96.2 | 53.4 | 8.9 | 56 | > 100 | > 100 | 52.7 | 79.5 | > 100 | > 100 | 15.2 | > 100 | > 100 | > 100 | > 100 | 48 | > 100 |  |  |
| COC(=O)c1cc(C)ccc1C1CN=NC12Cc1ccc(C)cc1C2=O (centres undefined) | > 100 | > 100 | > 100 | > 100 | 31.9 | > 100 | > 100 | > 100 | > 100 | > 100 | > 100 | > 100 | > 100 | > 100 | > 100 | > 100 | > 100 | > 100 | 80.6 |
| Nc1cccnc1NCC1(CO)CCCC1 | > 100 | > 100 | > 100 | > 100 | > 100 | > 100 | > 100 | > 100 |  | > 100 | > 100 | > 100 | > 100 | > 100 | > 100 | > 100 | > 100 | > 100 | > 100 |
| O=c1c2ccccc2[nH]c2c(Cl)cc(Cl)c(NC3CCCCC3)c12 | 60.1 | 28 | > 100 |  | > 100 | 36.8 | 55.3 | 33.5 | 38.8 | 49 | > 100 |  | 43.5 |  | > 100 | 30.6 | 79.1 | 44.8 | 86.9 |
| O=C(O)c1ccccc1/C=N/NC1=NCCN1 | > 100 | > 100 | > 100 | > 100 | > 100 | > 100 |  | > 100 | > 100 | > 100 | > 100 | > 100 | > 100 | > 100 | > 100 | > 100 | > 100 | > 100 | > 100 |
| O=C1N[C@H]2c3c(Cl)sc(Cl)c3[C@@H](O)[C@H]2O1 | > 100 | > 100 |  | > 100 | > 100 |  | > 100 | > 100 | > 100 | > 100 | > 100 | > 100 | > 100 | > 100 |  | > 100 | > 100 | > 100 | > 100 |
| COC(=O)c1cc2c(cc1CC1Cc3cc4c(cc3C1=O)CCC4)CCC2 (centres undefined) | > 100 | > 100 | 89.2 | > 100 | 42.5 | > 100 | > 100 | > 100 | > 100 | > 100 | > 100 | > 100 | > 100 | > 100 | > 100 | > 100 | > 100 | > 100 | 57.5 |
| O=C1N=C(SC2OC(CO)C(O)C(O)C2O)S/C1=C\c1ccccc1 (centres undefined) | > 100 | > 100 | > 100 | > 100 | > 100 | > 100 | > 100 | > 100 | > 100 | > 100 | > 100 | > 100 | > 100 | > 100 |  | > 100 | > 100 | > 100 | > 100 |
| CCOC(=O)CCCNC(=O)CCCCC(=O)N(C)C | > 100 | > 100 | > 100 | > 100 | > 100 | > 100 | > 100 | > 100 | > 100 | > 100 | > 100 | > 100 | > 100 | > 100 |  | > 100 | > 100 | > 100 | > 100 |
| c1ccc(-c2nc3ccccc3n3c(CN4CCCCC4)nnc23)cc1 | > 100 | > 100 | > 100 | > 100 | > 100 |  | > 100 |  | > 100 | > 100 | > 100 | > 100 | > 100 | > 100 | > 100 | > 100 | > 100 | > 100 | > 100 |
| N#Cc1c(=O)n(-c2ccccc2)c(O)c2c(N)n[nH]c12 | > 100 | > 100 |  | > 100 | > 100 | > 100 | > 100 | > 100 | > 100 | > 100 | > 100 | > 100 | > 100 | > 100 | > 100 | > 100 | > 100 | > 100 | > 100 |
| CN(C)c1ccc(/C=C2/NC(=S)NC2=O)cc1 | > 100 | > 100 | > 100 | > 100 | > 100 | > 100 | > 100 | > 100 | > 100 | > 100 | > 100 |  | > 100 | > 100 | > 100 | > 100 | > 100 | > 100 | > 100 |
| Cc1cc(S(=O)(=O)Nc2nc(N)n(-c3ccccn3)n2)c(S)cc1Cl | > 100 | > 100 |  | > 100 | > 100 |  | > 100 | > 100 | > 100 | > 100 | > 100 | > 100 | > 100 | > 100 | > 100 | > 100 | > 100 | > 100 | > 100 |
